Test results reported in patent publication US9549558B2, “Herbicidal azines” (BASF SE, priority 2012, dated 2017).

Key:
Assay type in all cases: in vivo
[1] = tested on: AMARE (Amaranthus retroflexus); test: greenhouse pre-emergence herbicidal test
Source text: (§1) The seeds of the test plants were sown separately for each species. For the pre-emergence treatment, the active ingredients, which had been suspended or emulsified in water, were applied directly after sowing by means of finely distributing nozzles. The containers were irrigated gently to promote germination and growth and subsequently covered with transparent plastic hoods until the plants had rooted. This cover caused uniform germination of the test plants, unless this had been impaired by the active ingredients. Depending on the species, the plants were kept at 10-25° C. or 20-35° C., respectively. The test period extended over 2 to 4 weeks. During this time, the plants were tended, and their response to the individual treatments was evaluated. […] A moderate herbicidal activity is given at values of at least 60, a good herbicidal activity is given at values of at least 70, and a very good herbicidal activity is given at values of at least 85. The plants used in the greenhouse experiments were of the following species: [table]

[2] = tested on: AMARE (Amaranthus retroflexus); test: greenhouse post-emergence herbicidal test; settings: 0.031 kg/ha
Source text: (§2) The culture containers used were plastic flowerpots containing loamy sand with approximately 3.0% of humus as the substrate. The seeds of the test plants were sown separately for each species.
For the post-emergence treatment, the test plants were first grown to a height of 3 to 15 cm, depending on the plant habit, and only then treated with the active ingredients which had been suspended or emulsified in water. For this purpose, the test plants were either sown directly and grown in the same containers, or they were first grown separately as seedlings and transplanted into the test containers a few days prior to treatment.
(§3) Depending on the species, the plants were kept at 10-25° C. or 20-35° C., respectively.
(§4) The test period extended over 2 to 4 weeks. During this time, the plants were tended, and their response to the individual treatments was evaluated.
(§5) Evaluation was carried out using a scale from 0 to 100. 100 means no emergence of the plants, or complete destruction of at least the aerial moieties, and 0 means no damage, or normal course of growth. A moderate herbicidal activity is given at values of at least 60, a good herbicidal activity is given at values of at least 70, and a very good herbicidal activity is given at values of at least 85.
(§6) The plants used in the greenhouse experiments were of the following species: […]

[3] = tested on: CAPBP (Capsella bursa-pastoris); test: greenhouse pre-emergence herbicidal test; settings: CAPBP
Source text: as §2
(§7) For the pre-emergence treatment, the active ingredients, which had been suspended or emulsified in water, were applied directly after sowing by means of finely distributing nozzles. The containers were irrigated gently to promote germination and growth and subsequently covered with transparent plastic hoods until the plants had rooted. This cover caused uniform germination of the test plants, unless this had been impaired by the active ingredients.
as §3, §4, §5, §6

[4] = tested on: STEME (Stellaria media); test: greenhouse pre-emergence herbicidal test
Source text: as §2, §7, §3, §4, §5, §6

[5] = tested on: ABUTH (Abutilon theophrasti); test: greenhouse pre-emergence herbicidal test
Source text: as §1

[6] = tested on: ECHCG (Echinocloa crus-galli); test: greenhouse pre-emergence herbicidal test
Source text: as §2, §7, §3, §4, §5, §6

In the case of CC(C#N)c1nc(N)nc(Nc2c(F)c(F)c(F)c(F)c2F)n1 (centres unmarked) [Example 5], the herbicidal activity ([1]; 0.125 kg/ha) is reported as “very good (a very good herbicidal activity is given at values of at least 85)”.
For CC(C)(F)c1nc(N)nc(Nc2c(F)cccc2Br)n1 [Example 31], the herbicidal activity [2] was “very good (a very good herbicidal activity is given at values of at least 85)”.
For CC(C)(F)c1nc(N)nc(Nc2c(Br)cc(F)c(F)c2F)n1 [Example 34], the herbicidal activity ([3]; 0.125 kg/ha) was “very good (a very good herbicidal activity is given at values of at least 85)” and the herbicidal activity ([4]; 0.125 kg/ha) was “very good (a very good herbicidal activity is given at values of at least 85)”.
For Cc1cccc(F)c1Nc1nc(N)nc(C(C)(C)F)n1 [Example 41], the herbicidal activity ([1]; 0.031 kg/ha) was “good (a good herbicidal activity is given at values of at least 70)”.
COc1cccc(F)c1Nc1nc(N)nc(C(C)(C)F)n1 [Example 42] was tested, and the herbicidal activity ([1]; 0.0625 kg/ha) was “very good (a very good herbicidal activity is given at values of at least 85)”.
In the case of COc1ccc(F)c(Nc2nc(N)nc(C(C)(C)F)n2)c1F [Example 43], the herbicidal activity [2] is reported as “good (a good herbicidal activity is given at values of at least 70)”.
CCOc1ccc(F)c(Nc2nc(N)nc(C(C)(C)F)n2)c1F [Example 44] was tested, and the herbicidal activity ([5]; 0.125 kg/ha) was “very good (a very good herbicidal activity is given at values of at least 85)” and the herbicidal activity ([1]; 0.125 kg/ha) was “very good (a very good herbicidal activity is given at values of at least 85)”.
In the case of COc1cccc(OC)c1Nc1nc(N)nc(C(C)(C)F)n1 [Example 47], the herbicidal activity ([1]; 0.125 kg/ha) is reported as “very good (a very good herbicidal activity is given at values of at least 85)”.
CCCC(F)(CC)c1nc(N)nc(Nc2c(F)c(F)c(F)c(F)c2F)n1 (centres unmarked) [Example 50] was tested, and the herbicidal activity ([3]; 0.125 kg/ha) was “very good (a very good herbicidal activity is given at values of at least 85)” and the herbicidal activity ([4]; 0.125 kg/ha) was “very good (a very good herbicidal activity is given at values of at least 85)”.
For CC(C)(C#N)c1nc(N)nc(Nc2c(F)c(F)c(F)c(F)c2F)n1 [Example 64], the herbicidal activity ([4]; 125 g/ha) was “very good (a very good herbicidal activity is given at values of at least 85)”, the herbicidal activity ([5]; 125 g/ha) was “very good (a very good herbicidal activity is given at values of at least 85)” and the herbicidal activity ([1]; 125 g/ha) was “very good (a very good herbicidal activity is given at values of at least 85)”.
With CC(C)c1nc(N)nc(Nc2c(F)cccc2F)n1 [Example 66] the herbicidal activity ([1]; 62.5 g/ha) was “very good (a very good herbicidal activity is given at values of at least 85)”.
With CC(C)c1nc(N)nc(Nc2c(F)ccc(Cl)c2F)n1 [Example 67] the herbicidal activity ([5]; 125 g/ha) was “good (a good herbicidal activity is given at values of at least 70)” and the herbicidal activity ([1]; 125 g/ha) was “very good (a very good herbicidal activity is given at values of at least 85)”.
Nc1nc(Nc2c(F)c(F)c(F)c(F)c2F)nc(C(F)(F)C(F)(F)F)n1 [Example 68] was tested, and the herbicidal activity ([3]; 125 g/ha) was “very good (a very good herbicidal activity is given at values of at least 85)”, the herbicidal activity ([4]; 125 g/ha) was “very good (a very good herbicidal activity is given at values of at least 85)” and the herbicidal activity ([1]; 125 g/ha) was “very good (a very good herbicidal activity is given at values of at least 85)”.
With Nc1nc(CC(F)(F)F)nc(Nc2c(F)c(F)c(F)c(F)c2F)n1 [Example 72] the herbicidal activity ([5]; 125 g/ha) was “very good (a very good herbicidal activity is given at values of at least 85)” and the herbicidal activity ([1]; 125 g/ha) was “very good (a very good herbicidal activity is given at values of at least 85)”.
For Nc1nc(Nc2c(F)c(F)c(F)c(F)c2F)nc(C(F)F)n1 [Example 121], the herbicidal activity ([5]; 250 g/ha) was “very good (a very good herbicidal activity is given at values of at least 85)” and the herbicidal activity ([1]; 250 g/ha) was “very good (a very good herbicidal activity is given at values of at least 85)”.
Nc1nc(Nc2c(F)ccc(F)c2F)nc(C(F)F)n1 [Example 123] was tested, and the herbicidal activity ([6]; 250 g/ha) was “good (a good herbicidal activity is given at values of at least 70)”, the herbicidal activity ([5]; 250 g/ha) was “good (a good herbicidal activity is given at values of at least 70)” and the herbicidal activity ([1]; 250 g/ha) was “very good (a very good herbicidal activity is given at values of at least 85)”.
CC=C(C)c1nc(N)nc(Nc2c(F)cccc2F)n1 [Example 124] was tested, and the herbicidal activity ([6]; 1000 g/ha) was “very good (a very good herbicidal activity is given at values of at least 85)”, the herbicidal activity ([5]; 1000 g/ha) was “very good (a very good herbicidal activity is given at values of at least 85)” and the herbicidal activity ([1]; 1000 g/ha) was “very good (a very good herbicidal activity is given at values of at least 85)”.
For CC(C)(C)c1nc(N)nc(Nc2c(F)cccc2C#N)n1 [Example 135], the herbicidal activity ([6]; 500 g/ha) was “very good (a very good herbicidal activity is given at values of at least 85)”, the herbicidal activity ([5]; 500 g/ha) was “very good (a very good herbicidal activity is given at values of at least 85)” and the herbicidal activity ([1]; 500 g/ha) was “very good (a very good herbicidal activity is given at values of at least 85)”.
With N#Cc1cccc(F)c1Nc1nc(N)nc(C(F)F)n1 [Example 149] the herbicidal activity ([4]; 250 g/ha) was “good (a good herbicidal activity is given at values of at least 70)”.
With CC(F)c1nc(N)nc(Nc2c(F)c(F)c(Br)c(F)c2F)n1 (centres unmarked) [Example 180] the herbicidal activity ([5]; 250 g/ha) was “very good (a very good herbicidal activity is given at values of at least 85)” and the herbicidal activity ([1]; 250 g/ha) was “very good (a very good herbicidal activity is given at values of at least 85)”.
For CC(C)(F)c1nc(N)nc(Nc2c(F)ccc([N+](=O)[O-])c2F)n1 [Example 189], the herbicidal activity ([6]; 507 g/ha) was “very good (a very good herbicidal activity is given at values of at least 85)”, the herbicidal activity ([5]; 507 g/ha) was “very good (a very good herbicidal activity is given at values of at least 85)” and the herbicidal activity ([1]; 507 g/ha) was “very good (a very good herbicidal activity is given at values of at least 85)”.
For Cc1cc(C)cc(Oc2cccc(F)c2Nc2nc(N)nc(C(C)(C)F)n2)c1 [Example 191], the herbicidal activity ([6]; 1000 g/ha) was “very good (a very good herbicidal activity is given at values of at least 85)”, the herbicidal activity ([5]; 1000 g/ha) was “very good (a very good herbicidal activity is given at values of at least 85)” and the herbicidal activity ([1]; 1000 g/ha) was “very good (a very good herbicidal activity is given at values of at least 85)”.
With CCC(C)c1nc(N)nc(Nc2c(F)c(F)cc(F)c2F)n1 (centres unmarked) [Example 193] the herbicidal activity ([6]; 500 g/ha) was “very good (a very good herbicidal activity is given at values of at least 85)”, the herbicidal activity ([5]; 500 g/ha) was “very good (a very good herbicidal activity is given at values of at least 85)” and the herbicidal activity ([1]; 500 g/ha) was “very good (a very good herbicidal activity is given at values of at least 85)”.
In the case of CCC(C)(Cl)c1nc(N)nc(Nc2c(F)c(F)c(Br)c(F)c2F)n1 (centres unmarked) [Example 195], the herbicidal activity ([6]; 500 g/ha) is reported as “good (a good herbicidal activity is given at values of at least 70)”, the herbicidal activity ([5]; 500 g/ha) is reported as “good (a good herbicidal activity is given at values of at least 70)” and the herbicidal activity ([1]; 500 g/ha) is reported as “very good (a very good herbicidal activity is given at values of at least 85)”.
With Nc1nc(CF)nc(Nc2c(F)c(F)cc(F)c2F)n1 [Example 198] the herbicidal activity ([1]; 119 g/ha) was “very good (a very good herbicidal activity is given at values of at least 85)”.
For CC=C(C)c1nc(N)nc(Nc2c(F)c(F)cc(F)c2F)n1 [Example 206], the herbicidal activity ([1]; 500 g/ha) was “very good (a very good herbicidal activity is given at values of at least 85)”.
For CCC(C#N)(CC)c1nc(N)nc(Nc2c(F)c(F)cc(F)c2F)n1 [Example 219], the herbicidal activity ([5]; 250 g/ha) was “very good (a very good herbicidal activity is given at values of at least 85)” and the herbicidal activity ([1]; 250 g/ha) was “very good (a very good herbicidal activity is given at values of at least 85)”.
In the case of COC(C)c1nc(N)nc(Nc2c(F)ccc(F)c2F)n1 (centres unmarked) [Example 228], the herbicidal activity ([5]; 500 g/ha) is reported as “very good (a very good herbicidal activity is given at values of at least 85)” and the herbicidal activity ([1]; 500 g/ha) is reported as “very good (a very good herbicidal activity is given at values of at least 85)”.
With Nc1nc(C2CCCC2)nc(N(C(=O)C2CCCC2)c2c(F)ccc(F)c2F)n1 [Example 302] the herbicidal activity ([6]; 1000 g/ha) was “very good (a very good herbicidal activity is given at values of at least 85)”, the herbicidal activity ([5]; 1000 g/ha) was “good (a good herbicidal activity is given at values of at least 70)” and the herbicidal activity ([1]; 1000 g/ha) was “very good (a very good herbicidal activity is given at values of at least 85)”.
With CCN(c1nc(N)nc(C(C)(C)F)n1)c1c(F)c(F)c(F)c(F)c1F [Example 308] the herbicidal activity ([1]; 125 g/ha) was “very good (a very good herbicidal activity is given at values of at least 85)”.
